# Measurements reported in patent publication US6884407B1, “Methods for diagnostic imaging involving the use of a contrast agent and a coronary vasodilator” (Bristol-Myers Squibb Pharma Company, priority 1996, dated 2005).
# Read-outs that look alike come from different tables or passages of the source.
# Assays:
# [1] = saturated diacyl-sn-glycero-3-phosphocholines, main chain melting transition; cited from earlier work
# [2] = Calculated diameter of emulsified droplet to form a 10 μm vesicle (ideal gas law); type: physicochemical; settings: for Diameter (μm) of emulsified droplet to make 10 micron vesicle: Table 2
# From the text: As noted above, compositions employed herein may also include, with respect to their preparation, formation and use, gaseous precursors that can be activated to change from a liquid or solid state into a gas by temperature, pH, light, and energy (such as ultrasound). The gaseous precursors may be made into gas by storing the precursors at reduced pressure. For example, a vial stored under reduced pressure may create a headspace of perfluoropentane or perfluorohexane gas, useful for creating a preformed gas prior to injection. Preferably, the gaseous precursors may be activated by temperature. Set forth below is a table listing a series of gaseous precursors which undergo phase transitions from liquid to gaseous states at relatively close to normal body temperature (37° C.) or below, and the size of the emulsified droplets that would be required to form a vesicle of a maximum size of 10 μm.
# The ideal gas law, which can be used for calculating the increase in the volume of the gas bubbles upon transitioning from liquid to gaseous states, is as follows: PV=nRT where
# Thus, for stabilization of the precursor in the liquid state in a mixture wherein the precursor droplet is spherical, the volume of the precursor droplet may be determined by the equation: Volume (spherical vesicle)=4/3 πr^3 where
# (B) where D is the density of the precursor. Solving for the diameter of the liquid droplet, diameter/2=[3/4π[4/3·[πrgas^3]P/RT]MWn/D]^1/3 (C) which reduces to Diameter=2[[rgas^3]P/RT[MWn/D]]^1/3.
# [3] = cited from earlier work; for Boiling Point: Table 2, CRC Handbook
# [4] = cited from earlier work
# myocardium = assay: Ultrasound dose range studies of myocardium echo enhancement before and after coronary vasodilator; type: in vivo; settings: 20 Kg pig, dipyridamole 0.56 mg/Kg IV over 4 minutes with gas filled vesicles of Example 1
# Experimental: This example includes a description of methods for imaging the cardiovascular region of a patient in accordance with methods within the scope of the present invention.
# A 20 Kg pig is anesthetized with isoflurane and a Swan Ganz catheter is inserted to monitor hemodynamics. Dose range studies are conducted using the gas filled vesicles prepared in Example 1 to determine the minimum dose required to enhance the myocardium echo, which is defined as greater than 10 videodensitometry units as determined by repeated videodensity measurements. After the dose range studies are performed, dipyridamole is administered intravenously at a dose of 0.56 mg/Kg over a period of 4 minutes. After a 5 minute latency period, dose range studies are repeated.
# [5] = Table 2, CRC Handbook, in g/mL (unit assumed)
Molecule,Main Phase Transition Temperature [1],Diameter (μm) of emulsified droplet to make 10 micron vesicle [2],Boiling Point [3],"Density [4, 5]",also measured
"CCCCCCCCCCCCCCCCC(=O)OC[C@H](COP(=O)([O-])OCC[N+](C)(C)C)OC(=O)CCCCCCCCCCCCCCCC [1,2-(17:0)]",48.2 °C,,,,
"CCCCCCCCCCCCCCC(=O)OC[C@H](COP(=O)([O-])OCC[N+](C)(C)C)OC(=O)CCCCCCCCCCCCCC [1,2-(15:0)]",34.5 °C,,,,
CC=C(C)C [2-methyl-2-butene],,2.5 μm,38.6 °C,0.6623,
FC(F)(F)C(F)(F)C(F)(F)C(F)(F)C(F)(F)C(F)(F)F [perfluorohexane],,,,,liquid/gas phase transition temperature (boiling point) [3]: 57 °C
"CCCCCCCCCCCCCCCCCCCCCC(=O)OC[C@H](COP(=O)([O-])OCC[N+](C)(C)C)OC(=O)CCCCCCCCCCCCCCCCCCCCC [1,2-(22:0)]",74.0 °C,,,,
"CCCCCCCCCCCCCCCCCCC(=O)OC[C@H](COP(=O)([O-])OCC[N+](C)(C)C)OC(=O)CCCCCCCCCCCCCCCCCC [1,2-(19:0)]",61.8 °C,,,,
"CCCCCCCCCCCCCCCCCC(=O)OC[C@H](COP(=O)([O-])OCC[N+](C)(C)C)OC(=O)CCCCCCCCCCCCCCCCC [1,2-(18:0)]",55.1 °C,,,,
"CCCCCCCCCCCCCCCCCCCCCCCC(=O)OCC(COP(=O)([O-])OCC[N+](C)(C)C)OC(=O)CCCCCCCCCCCCCCCCCCCCCCC (stereo not shown) [1,2-(24:0)]",80.1 °C,,,,
"CCCCCCCCCCCC(=O)OC[C@H](COP(=O)([O-])OCC[N+](C)(C)C)OC(=O)CCCCCCCCCCC [1,2-(12:0)]",−1.0 °C,,,,
"CCCCCCCCCCCCCCCCCCCCCCC(=O)OCC(COP(=O)([O-])OCC[N+](C)(C)C)OC(=O)CCCCCCCCCCCCCCCCCCCCCC (stereo not shown) [1,2-(23:0)]",79.5 °C,,,,
"CCCCCCCCCCCCCCCCCCCC(=O)OC[C@H](COP(=O)([O-])OCC[N+](C)(C)C)OC(=O)CCCCCCCCCCCCCCCCCCC [1,2-(20:0)]",64.5 °C,,,,
"FC(F)(F)C(F)(F)C(F)(F)C(F)(F)F [decafluoro butane, perfluorobutane]",,3.0 μm,−2 °C,1.517,liquid/gas phase transition temperature (boiling point) [3]: 4 °C
"FC(F)(F)C(F)(F)C(F)(F)C(F)(F)C(F)(F)F [perfluoro pentane, perfluoropentane]",,2.9 μm,29.5 °C,1.7326,liquid/gas phase transition temperature (boiling point) [3]: 29.5 °C
2-methyl 1-butene,,2.5 μm,31.2 °C,0.6504,
"CCC(C)C [2-methyl butane (isopentane), 2-methyl butane]",,2.6 μm,,0.6201,
CCCCF [1-fluorobutane],,1.2 μm,32.5 °C,0.6779,"diameter of emulsion droplets to make a gaseous precursor filled vesicle with an upper limit of 10 μm ([2]; equation (C), 37° C., 1 atmosphere): 0.0544 μm; liquid/gas phase transition temperature (boiling point) [3]: 32.5 °C; Density ([4]; at 20° C.): 0.7789 g/mL"
"CCCCCCCCCCCCCCCC(=O)OC[C@H](COP(=O)([O-])OCC[N+](C)(C)C)OC(=O)CCCCCCCCCCCCCCC [1,2-(16:0)]",41.4 °C,,,,
C#CC(C)C [3-methyl-1-butyne],,2.5 μm,29.5 °C,0.6660,
"FC1(F)C(F)(F)C(F)(F)C1(F)F [octafluoro cyclobutane, octafluorocyclobutane]",,2.8 μm,−5.8 °C,1.48,
"CCCCCCCCCCCCC(=O)OC[C@H](COP(=O)([O-])OCC[N+](C)(C)C)OC(=O)CCCCCCCCCCCC [1,2-(13:0)]",13.7 °C,,,,
"CCCCCCCCCCCCCCCCCCCCC(=O)OC[C@H](COP(=O)([O-])OCC[N+](C)(C)C)OC(=O)CCCCCCCCCCCCCCCCCCCC [1,2-(21:0)]",71.1 °C,,,,
C#CC(=C)C [1-butene-3-yne-2-methyl],,2.4 μm,34.0 °C,0.6801,
"CCCCCCCCCCCCCC(=O)OC[C@H](COP(=O)([O-])OCC[N+](C)(C)C)OC(=O)CCCCCCCCCCCCC [1,2-(14:0)]",23.5 °C,,,,
FC(F)(F)C(F)(F)F [hexafluoro ethane],,2.7 μm,,1.607,
OCCN(CCO)c1nc(N2CCCCC2)c2nc(N(CCO)CCO)nc(N3CCCCC3)c2n1 [dipyridamole],,,,,diagnostic artifacts (myocardium): substantially eliminated; dosage of contrast agent required to obtain a medically useful diagnostic image of the cardiovascular region (myocardium; after vs before dipyridamole): significantly smaller dosage
